{
  "source": "paper PMC3683333",
  "about": "“^11C-LY2428703, a positron emission tomographic radioligand for the metabotropic glutamate receptor 1, is unsuitable for imaging in monkey and human brains” (EJNMMI Research, 2013)",
  "key": {"[1]": {"experiment": "In vitro stability in human blood and plasma", "type": "in vitro ADME", "details": "room temperature, 30 min", "method": "Nonradioactive anticoagulated blood was obtained on the day of study from either human or nonhuman primates. Aliquots of ^11C-LY2428703 (about 150 kBq) were added to 0.5 mL of whole blood or 0.5 mL of plasma. Samples were incubated at room temperature for 30 min, after which either 450 μL of the radioactive plasma was added to 720 μL of acetonitrile or 200 μL of the radioactive whole blood was added to 300 μL of water. The tube containing the blood suspension was shaken well to mix and lyse the blood cells. Seven hundred and twenty microliters of acetonitrile was subsequently added and mixed well to precipitate the proteins, followed by 100 μL of water, which was again re-mixed. Radioactivity in the tubes was measured in a gamma counter and then centrifuged at 10,000×g for 1 min. The clear supernatant liquid was injected into the high-performance liquid chromatography (HPLC) column and the precipitate counted to calculate the recovery of radioactivity into the acetonitrile.\nThe stability of the radioligand in whole blood or plasma was calculated as the ratio of the HPLC % composition of samples divided by the radiochemical purity of the radioligand."}, "[2]": {"experiment": "Arterial plasma analysis after injection, monkey", "type": "in vivo, rhesus monkeys", "details": "after intravenous injection", "method": "(§1) Plasma analyses were performed on a reverse-phase chromatography C18 column (Novapak, 4 μm, 100 × 8 mm, Waters Corp. Milford, MA, USA) using Radial-Pak® compression module RCM-100 with a sentry pre-column. Human plasma analyses were performed with a mobile phase of […], at a flow rate of 2.5 mL/min; nonhuman primate plasma samples were analyzed with a mobile phase of MeOH/H2O/Et3N, 72.5:27.5:0.1 by volume, at a flow rate of 1.5 mL/min. To compare the outcome from both systems, elution volume is reported rather than retention time.\nArterial plasma was analyzed as previously described. Briefly, after ^11C-LY2428703 injection into either human or nonhuman primate, the input function was determined by periodically drawing anticoagulated blood samples. […] The samples were counted in the γ-counter and centrifuged at 10,000×g for 1 min. […] The precipitates were then counted for radioactivity to allow the calculation of the efficiency of recovery of radioactivity in the acetonitrile. […]\nPET images were acquired using either the high-resolution research tomograph (HRRT) or the FOCUS 220 scanner (Siemens/CPS, Knoxville, TN, USA) for 120 min in 33 frames, with frame durations ranging from 30 s to 5 min, and correcting for attenuation and scatter. […] Electrocardiograph, body temperature, heart rate, and respiration rate were measured throughout the experiment. […]"}, "[3]": {"target": "mGluR1 (Homo sapiens, UniProt Q13255)", "sequence (Q13255 19-1194)": "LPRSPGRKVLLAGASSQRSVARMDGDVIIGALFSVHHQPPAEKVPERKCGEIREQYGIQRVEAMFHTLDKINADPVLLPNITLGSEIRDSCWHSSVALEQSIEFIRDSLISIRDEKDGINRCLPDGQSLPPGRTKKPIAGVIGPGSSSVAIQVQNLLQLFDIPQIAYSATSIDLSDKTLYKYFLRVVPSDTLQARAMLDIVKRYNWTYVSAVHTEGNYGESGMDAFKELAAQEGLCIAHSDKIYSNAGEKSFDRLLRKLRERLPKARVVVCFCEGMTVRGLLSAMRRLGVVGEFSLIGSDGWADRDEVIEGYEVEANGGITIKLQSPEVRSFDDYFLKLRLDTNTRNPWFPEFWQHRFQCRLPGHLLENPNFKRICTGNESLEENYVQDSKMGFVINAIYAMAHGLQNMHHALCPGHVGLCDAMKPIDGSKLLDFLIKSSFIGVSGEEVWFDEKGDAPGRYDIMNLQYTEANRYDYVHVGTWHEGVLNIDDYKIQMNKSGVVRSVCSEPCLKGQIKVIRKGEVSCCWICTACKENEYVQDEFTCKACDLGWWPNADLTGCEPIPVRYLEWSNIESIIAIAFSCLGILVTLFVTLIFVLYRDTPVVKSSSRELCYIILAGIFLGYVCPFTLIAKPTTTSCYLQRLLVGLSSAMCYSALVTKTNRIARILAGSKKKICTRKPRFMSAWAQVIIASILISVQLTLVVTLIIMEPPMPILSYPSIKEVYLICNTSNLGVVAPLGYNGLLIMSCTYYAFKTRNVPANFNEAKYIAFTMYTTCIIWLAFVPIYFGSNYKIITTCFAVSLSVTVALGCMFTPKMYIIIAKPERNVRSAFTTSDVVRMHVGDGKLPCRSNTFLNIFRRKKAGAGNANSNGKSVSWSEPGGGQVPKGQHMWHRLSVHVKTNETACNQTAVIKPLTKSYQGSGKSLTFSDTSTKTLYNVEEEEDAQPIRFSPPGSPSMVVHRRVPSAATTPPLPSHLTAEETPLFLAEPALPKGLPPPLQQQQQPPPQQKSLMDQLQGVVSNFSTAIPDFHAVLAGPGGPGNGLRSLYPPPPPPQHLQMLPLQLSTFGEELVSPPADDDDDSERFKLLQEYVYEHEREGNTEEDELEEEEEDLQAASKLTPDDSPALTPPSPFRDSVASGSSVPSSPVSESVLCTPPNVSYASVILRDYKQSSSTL", "experiment": "Saturation binding assay with [^3H]LY456066, human cerebellar membranes", "set-up": "P2 membrane fractions were prepared from the cerebella of; from tissue; host or cells: human cerebellum, P2 membrane fraction", "details": "humans", "method": "(§2) P2 membrane fractions were prepared from the cerebella of male Sprague–Dawley rats (n = 3), male rhesus monkeys (n = 3), and female humans (n = 4). […] Nonspecific binding was defined by heterologous displacement of 1 μM LY480084 (mGlu1 antagonist) in select wells. Plates were incubated on ice for 75 min and membranes harvested on 0.3% polyethylenimine pretreated Wallac filter mats using a Tomtec Harvester MachII (Tomtec, Hamden, CT, USA). Dissociation constant (KD) and receptor density (Bmax) values were obtained in GraphPad Prism using standard nonlinear one-site binding equations. Data are presented as mean ± SEM (n = 3 to 4); one-way analysis of variance followed by Tukey's post hoc test."}, "[4]": {"experiment": "Arterial plasma analysis after injection, human", "type": "in vivo", "method": "as §1\nArterial plasma was analyzed as previously described. Briefly, after ^11C-LY2428703 injection into either human or nonhuman primate, the input function was determined by periodically drawing anticoagulated blood samples. Blood aliquots were removed so that the γ-counter could provide information necessary for vascular correction. The remaining blood was then centrifuged, and plasma (450 μL) aliquots were removed and placed in acetonitriles (720 μL/ea) spiked with carrier LY2428703. The samples were mixed well, 100 μL water aliquots were added, and then, the sample was further mixed. The samples were counted in the γ-counter and centrifuged at 10,000×g for 1 min. The clear supernatant liquids were injected onto the radio-HPLC as described above. The precipitates were then counted for radioactivity to allow the calculation of the efficiency of recovery of radioactivity in the acetonitrile. Human plasma samples were separated with a mobile phase of higher polarity ([…]) to ensure that the parent radiochromatographic peak comprised a single radiochemical species.\nPET images were acquired using the GE Advance scanner (GE Healthcare, Milwaukee, WI, USA) for 120 min. An 8-min ^68Ge transmission scan was obtained before the injection of the radiotracer for attenuation correction. The mean injected activity was 328 ± 12 MBq. The specific activity at the time of injection was 87.2 ± 34.7 GBq/μmol, which corresponded to 5.5 ± 2.3 nmol (0.082 ± 0.037 nmol/kg) of carrier. Blood samples (1 mL each) were drawn from the radial artery at 15-s intervals until 150 s, followed by 3-mL samples at 3, 4, 6, 8, 10, 15, 20, 30, 40, and 50 min, and 4.5 mL at 60, 75, 90, and 120 min. The unchanged parent fraction in plasma and fP of ^11C-LY2428703 were determined as described above."}, "[5]": {"target": "T1, mGluR1 (Rattus norvegicus, UniProt P23385)", "T1 construct": "P2 membrane fractions were prepared from the cerebella of male Sprague–Dawley rats; from tissue; host or cells: rat cerebellum, P2 membrane fraction", "T1 sequence (P23385 19-1199)": "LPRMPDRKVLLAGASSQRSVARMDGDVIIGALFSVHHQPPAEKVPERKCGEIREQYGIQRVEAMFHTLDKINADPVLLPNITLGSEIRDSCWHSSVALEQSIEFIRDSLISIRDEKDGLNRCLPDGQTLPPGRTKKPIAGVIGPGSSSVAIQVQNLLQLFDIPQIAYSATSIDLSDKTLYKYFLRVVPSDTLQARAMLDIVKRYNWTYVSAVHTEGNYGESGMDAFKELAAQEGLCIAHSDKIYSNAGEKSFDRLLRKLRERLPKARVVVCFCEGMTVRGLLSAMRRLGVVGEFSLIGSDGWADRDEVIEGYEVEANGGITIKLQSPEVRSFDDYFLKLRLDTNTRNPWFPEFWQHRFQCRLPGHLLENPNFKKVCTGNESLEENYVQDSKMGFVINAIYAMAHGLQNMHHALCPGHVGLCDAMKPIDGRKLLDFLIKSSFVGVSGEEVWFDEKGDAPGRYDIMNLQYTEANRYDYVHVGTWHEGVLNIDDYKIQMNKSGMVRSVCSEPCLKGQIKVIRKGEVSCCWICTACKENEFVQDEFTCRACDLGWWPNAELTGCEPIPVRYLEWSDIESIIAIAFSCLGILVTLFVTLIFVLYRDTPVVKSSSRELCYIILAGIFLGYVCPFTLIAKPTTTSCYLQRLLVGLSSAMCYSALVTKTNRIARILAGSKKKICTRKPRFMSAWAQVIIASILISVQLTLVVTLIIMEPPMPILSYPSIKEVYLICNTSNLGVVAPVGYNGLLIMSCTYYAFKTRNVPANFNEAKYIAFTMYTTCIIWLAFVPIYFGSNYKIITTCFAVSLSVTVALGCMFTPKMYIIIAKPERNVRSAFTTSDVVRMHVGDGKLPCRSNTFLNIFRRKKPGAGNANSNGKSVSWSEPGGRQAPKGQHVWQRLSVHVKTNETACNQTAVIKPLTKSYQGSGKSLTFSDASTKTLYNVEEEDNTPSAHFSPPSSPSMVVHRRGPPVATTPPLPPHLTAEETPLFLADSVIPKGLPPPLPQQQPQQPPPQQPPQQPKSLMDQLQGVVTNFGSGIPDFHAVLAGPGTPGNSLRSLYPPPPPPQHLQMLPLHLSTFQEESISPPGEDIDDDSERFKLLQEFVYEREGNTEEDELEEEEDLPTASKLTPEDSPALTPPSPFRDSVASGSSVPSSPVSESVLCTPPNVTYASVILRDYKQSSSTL", "experiment": "Saturation binding assay with [^3H]LY456066, rat cerebellar membranes", "set-up": "species or system Sprague–Dawley rats", "details": "rats; fp from ref 10", "method": "as §2"}},
  "data": [
    {"smiles": "Cc1c(-c2ccc(O[11CH3])cc2)nsc1NC(=O)[C@@H]1C[C@H]1C", "note": "[^11C-LY2428703]", "values": [
      {"measurement": "tracer stability", "setting": "[1]; human plasma", "value": "99.4 ± 1.4", "unit": "%"},
      {"measurement": "tracer stability", "setting": "[1]; human whole blood", "value": "99.5 ± 1.1", "unit": "%"},
      {"measurement": "time of peak plasma concentration", "setting": "[2]", "value": "1 to 1.5", "unit": "min"},
      {"measurement": "fp × Bmax/KD (=VS), effective BP", "setting": "[3]", "value": 0.016},
      {"measurement": "peak plasma concentration", "setting": "[4]", "value": "33 ± 5", "unit": "SUV"},
      {"measurement": "time of peak plasma concentration", "setting": "[4]", "value": "1.5 ± 0", "unit": "min"},
      {"measurement": "radiometabolites in plasma", "setting": "[4]; at 2 h", "value": "approximately 1%"},
      {"measurement": "parent radioligand as share of total blood radioactivity", "setting": "[4]; entire 2-h imaging period", "value": "~99", "unit": "%"},
      {"measurement": "fp × Bmax/KD (=VS), effective BP", "setting": "[5]", "value": 0.683}
    ]}
  ]
}
